Experimental data published in BigSolDB 2.1.

O=C(O)C[C@H](O)C(=O)O
solubility (mole fraction)
Conditions	278.15 K	283.15 K	288.15 K	293.15 K	298.15 K	303.15 K	308.15 K	313.15 K	318.15 K	323.15 K
in acetone	0.136	0.145	0.153	0.163	0.17	0.18	0.189	0.201	0.211	0.225
in acetonitrile	0.045	0.0485	0.0523	0.0559	0.0608	0.0646	0.0684	0.0733	0.0783	0.0838
in ethanol	0.11	0.126	0.145	0.166	0.187	0.207	0.232	0.256	0.283	0.314
in ethyl acetate	0.0017	0.0029	0.005	0.0083	0.0134	0.0213	0.0333	0.0516	0.0763	0.113
in isopropanol	0.117	0.136	0.157	0.178	0.203	0.228	0.256	0.285	0.314	0.345
in n-butanol	0.0832	0.0948	0.109	0.124	0.14	0.159	0.18	0.201	0.225	0.25
in n-propanol	0.0917	0.103	0.118	0.134	0.153	0.172	0.193	0.215	0.238	0.264
